Patent US5593970A, “Heterocyclic anthracycline analogs” (priority 1994, dated 1997)

Key:
LS180 = assay: Soft agar colony formation disk diffusion assay; format: cell-based, human
Outline: (§1)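 Cells in 0.4% Noble agar top layer over 0.8% agar base; compound in DMSO/water applied on 6.5 mm filter disk. Incubated 37 °C, 5% CO2 for 10–20 days. Activity measured as inhibition zone from disk edge to nearest colonies (>50 cells), by ocular micrometer.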

MCF7/ADR = assay: Soft agar colony formation disk diffusion assay; format: cell-based, human
Outline: as §1

MCF7 = assay: Soft agar colony formation disk diffusion assay; format: cell-based, human
Outline: as §1

MATB.WT = assay: Soft agar colony formation disk diffusion assay; format: cell-based, rat
Source text: (§2) A more elaborate version of this fundamental assay, the soft agar colony formation disk diffusion assay was used. This assay defines the relative activity of one particular drug versus a tumoral cell line type. The effect of the test drug against tumoral cells could be measured by its inhibitory capacity against colony formation after the delivery of the compound, in different concentrations on an filter disk(4). A modified technique of this assay was used in order to investigate the antiproliferative activity of candidate compounds. Tumoral cells from solid tumors and ascitic lines were plated separately in a two layer agar matrix. Cell lines to be tested were suspended in an upper layer of 0.4% Noble agar (Difco#00142-01) in RPMI-1066 (Gibco#3201875) at a yield varying between 10^4 to 2×10^5 cells per 60 mm Petri dish. Plating efficiency was determined for each line in order to achieve an optimal number of colonies per dish. Plates were examined before drug administration to confirm a uniform dispersion of single cells. The bottom layer consisted of 0.8% Noble agar, 0.8% Tryptic Soy Broth (difco#0037001)in CMRL-1066/Fischer's. The bottom layers were used within 2 and 9 days of preparation. Plated dishes (bottom layer of agar, upper layer of cells and administered drug were incubated in humidified atmosphere at 37° C., 5% CO2 for 10-20 days depending upon the time necessary to observe adequate colonies (defined as a cell aggregate of more than 50 cells) both control and drug inhibited. Drugs were administered on a paper filter disk (Whatman No. 1) of 6.5 mm diameter placed on the upper layer at 1/3 distance from the edge of the dish. The anti-clonogenic activity of the compounds was measured as the zone of inhibition from the disk edge to the most proximal colonies. This zone of inhibition was checked on an inverted microscope (40×) and was measured with a micrometer mounted in the eyepiece. The ocular micrometer was calibrated with a stage micrometer set for a particular combination of ocular and objective lenses. […] We made a modification of the initial technique by not plating a solid tumor and a leukemia simultaneously in the same Petri dish. Anti-clonogenic tests performed on leukemia cell line have helped in the discovery of the majority of current clinically used cytostatic drugs. Our tests on solid tumor lines (animal or human) may help define active compounds with solid tumor specificity. […] Murine tumors were maintained IN VIVO in order to diminish the selection of subpopulations of cells normally present in the heterogenous IN VIVO tumor. The actual drug sensitivity assay was done IN VITRO. For these experiments cells from freshly excised tumors or from ascitic fluids were maintained in RPMI-1066. Both compounds were dissolved in DMSO (1 mg/100 ul) and brought to final volume (250 ul) with Millipore deionized sterile water. Further dilutions were made with […] volume of 25 ul of freshly prepared solution was placed on the filter disk and allowed to dry.

MATB/ADR = assay: Soft agar colony formation disk diffusion assay; format: cell-based, rat
Source text: as §2

B16 = assay: Soft agar colony formation disk diffusion assay; format: cell-based, murine
Source text: as §2

M5076 = assay: Soft agar colony formation disk diffusion assay; format: cell-based, murine
Source text: as §2

P388/ADR = assay: Soft agar colony formation disk diffusion assay; format: cell-based, murine
Source text: as §2

P388 = assay: Soft agar colony formation disk diffusion assay; format: cell-based, murine
Source text: as §2

SKVLB = assay: Microculture tetrazolium assay; format: cell-based; settings: for VLB/OV3: IC50 ratio SKVLB/SKOV3; for IC50: SKVLB, read-out: IC50
LOX = assay: Microculture tetrazolium assay; format: cell-based; settings: read-out: IC50

| Compound | zone of inhibition (LS180; 10 μg/DISK) | zone of inhibition (LS180; 100 μg/DISK) | zone of inhibition (MCF7/ADR; 10 μg/DISK) | zone of inhibition (MCF7/ADR; 100 μg/DISK) | zone of inhibition (MCF7; 10 μg/DISK) | zone of inhibition (MCF7; 100 μg/DISK) | zone of inhibition (MATB.WT; 10 μg/DISK) | zone of inhibition (MATB.WT; 100 μg/DISK) | cross resistance with adriamycin, MATB/ADR vs MATB.WT (MATB/ADR) | zone of inhibition (MATB/ADR; 10 μg/DISK) | zone of inhibition (MATB/ADR; 100 μg/DISK) | zone of inhibition (B16; 10 μg/DISK) | zone of inhibition (B16; 100 μg/DISK) | zone of inhibition (M5076; 10 μg/DISK) | zone of inhibition (M5076; 100 μg/DISK) | zone of inhibition (P388/ADR; 10 μg/DISK) | zone of inhibition (P388/ADR; 100 μg/DISK) | VLB/OV3 (SKVLB) | IC50 (SKVLB) | IC50 (LOX) | other results |
| --- | --- | --- | --- | --- | --- | --- | --- | --- | --- | --- | --- | --- | --- | --- | --- | --- | --- | --- | --- | --- | --- |
| 3-(2-acetoxy-1-propeneketal)aceto-6-acetoxy-1-hydroxy-1,2,3,4-tetrahydro-(2-oxygen)naphtacene-5,12-dione and 3-(2-acetoxy-1-propeneketal)-aceto-11-acetoxy-1-hydroxy-1,2,3,4-tetrahydro-(2-oxygen)naphtacene-5,12-dione [BCH-710] | 48.5 ± 26.1 Zone Units | 110.0 ± 50.2 Zone Units | 0 Zone Units | 106.0 ± 21.9 Zone Units | 0 Zone Units | 24.0 ± 8.4 Zone Units | 44.0 Zone Units | 366.0 ± 0.0 Zone Units | greater cytotoxicity in the resistant breast tumor cell line | 288.0 ± 21.9 Zone Units | 350.0 ± 64.3 Zone Units | 21.0 ± 2.1 Zone Units | 21.0 ± 2.1 Zone Units | 209.5 ± 21.9 Zone Units | 533.0 ± 20.0 Zone Units | 0 Zone Units | 110.0 ± 0.0 Zone Units | 1.30 | 5.19 µM | 3.51 µM | zone of inhibition (P388; 10 μg/DISK): 13.0 ± 0.0 Zone Units; zone of inhibition (P388; 100 μg/DISK): 326.5 ± 43.1 Zone Units |
| CCOC(=O)[C@H]1CC2=C(C(=O)c3cc4ccccc4c(O)c3C2=O)[C@H](O[C@H]2C[C@H](NC(=O)C(F)(F)F)[C@H](O)[C@H](C)O2)O1 [BCH-684, (1'S,1S,3R)Ethyl[6-hydroxy-5,12-dioxo-1-(3'-trifluoroacetamido-1-daunosaminyl)-3,4,5,12-tetrahydroanthraceno(2,3-C)pyran-3-yl]formate] |  |  | 161.6 ± 30.1 Zone Units | 437.1 ± 30.1 Zone Units | 115.9 ± 8.6 Zone Units | 225.7 ± 25.8 Zone Units | 131.3 ± 12.9 Zone Units | 366.0 ± 172.5 Zone Units | no cross resistance with adriamycin | 122.0 ± 17.0 Zone Units | 320.2 ± 107.8 Zone Units |  |  |  |  |  |  | 1.52 | 6.38 µM |  | cross resistance with adriamycin, MCF7/ADR vs MCF7 (MCF7/ADR): more active in the adriamycin resistant cell line |
| CCOC(=O)[C@@H]1CC2=C(C(=O)c3cc4ccccc4c(O)c3C2=O)[C@@H](O[C@H]2C[C@H](NC(=O)C(F)(F)F)[C@H](O)[C@H](C)O2)O1 [BCH-681, (1'S,1R,3S)Ethyl[6-hydroxy-5,12-dioxo-1-(3'-trifuloroacetamido-1-daunosaminyl)-3,4,5,12-tetrahydroanthraceno(2,3-C)pyran-3-yl]formate] |  |  | 82.7 ± 30.1 Zone Units | 326.3 ± 56.0 Zone Units |  |  | 51.8 ± 4.3 Zone Units | 176.9 ± 8.6 Zone Units | no cross resistance with adriamycin | 54.9 ± 8.6 Zone Units | 244.0 ± 43.1 Zone Units |  |  |  |  |  |  | 1.16 | 6.99 µM | 4.89 µM |  |
| 3-Carbomethoxy-1,11-dihydroxy-1,2,3,4-tetrahydro-(2-oxygen)naphthacene-5,12-dione 3-Carbomethoxy-1,6-dihydroxy-1,2,3,4-tetrahydro-(2-oxygen)naphthacene-5,12-dione [BCH-711] | 18.0 ± 16.9 Zone Units | 182.5 ± 43.1 Zone Units | 24.4 ± 8.5 Zone Units | 222.4 ± 159.2 Zone Units | 0 Zone Units | 244.0 ± 17.2 Zone Units | 27.0 ± 4.2 Zone Units | 137.0 ± 21.2 Zone Units | greater cytotoxicity in the resistant breast tumor cell line | 45.5 ± 21.9 Zone Units | 107.0 ± 21.9 Zone Units | 27.0 ± 4.2 Zone Units | 137.0 ± 21.2 Zone Units | 55.0 ± 8.4 Zone Units | 198.0 ± 21.2 Zone Units | 40.0 ± 20.0 Zone Units | 150.0 ± 30.0 Zone Units | 1.22 | 13.5 µM | 11.5 µM | zone of inhibition (P388; 10 μg/DISK): 45.5 ± 21.9 Zone Units; zone of inhibition (P388; 100 μg/DISK): 183.0 ± 0.0 Zone Units |
| CC(=O)Oc1c2c(c(O)c3ccccc13)C(=O)C1=C(C2=O)C(O)OC(C(C)=O)C1 (stereo not drawn) [BCH-704, Methyl(11-acetoxy-1,6-dihydroxy-5,12-dioxo-3,4,5,12-tetrahydroanthraceno[2,3-c]pyran-3-yl)ketone] | 38.3 ± 2.4 Zone Units | 131.1 ± 31.1 Zone Units | 122.0 ± 25.8 Zone Units | 323.0 ± 16.8 Zone Units | 183.0 ± 10.8 Zone Units | 320.5 ± 21.5 Zone Units | 198.5 ± 21.9 Zone Units | 414.8 ± 25.8 Zone Units | greater cytotoxicity in the resistant breast tumor cell line | 320.2 ± 64.7 Zone Units | 527.4 ± 72.9 Zone Units |  |  |  |  |  |  | 0.84 | 13.8 µM | 28.3 µM |  |
| CCOC(=O)C1Cc2c(c(OC)c3c(c2OC)C(=O)c2ccccc2C3=O)CS1 (stereo not drawn) [BCH-717] | 0 Zone Units | 61.0 ± 0.0 Zone Units | 0 Zone Units | 0 Zone Units | 0 Zone Units | 0 Zone Units | 0 Zone Units | 0 Zone Units |  | 0 Zone Units | 0 Zone Units | 0 Zone Units | 106.0 ± 64.3 Zone Units | 18.3 Zone Units | 39.5 ± 30.4 Zone Units | 0 Zone Units | 0 Zone Units |  | > 100 µM | > 100 µM | zone of inhibition (P388; 10 μg/DISK): 0 Zone Units; zone of inhibition (P388; 100 μg/DISK): 122.0 ± 0.0 Zone Units |
| C=CC1CC2=C(C(=O)c3cc4ccccc4c(O)c3C2=O)C(OC)O1 (stereo not drawn) [BCH-712, 6-hydroxy-1-methoxy-1,2,3,4-tetrahydro-3-vinyl-(2-oxygen) naphthacene-5,12-dione] | 9.0 ± 4.2 Zone Units | 158.0 ± 34.6 Zone Units | 24.0 ± 8.4 Zone Units | 79.0 ± 8.4 Zone Units | 0 Zone Units | 54.5 ± 9.1 Zone Units | 21.0 ± 4.3 Zone Units | 76.0 ± 21.2 Zone Units | no cross resistance with adriamycin | 0 Zone Units | 64.0 ± 4.2 Zone Units | 0 Zone Units | 27.0 ± 4.2 Zone Units | 0 Zone Units | 158.0 ± 34.6 Zone Units | 0 Zone Units | 42.5 ± 9.1 Zone Units |  |  |  | cross resistance with adriamycin, MCF7/ADR vs MCF7 (MCF7/ADR): more active in the adriamycin resistant cell line; zone of inhibition (P388; 10 μg/DISK): 6.1 ± 0.0 Zone Units; zone of inhibition (P388; 100 μg/DISK): 70.0 ± 21.2 Zone Units |
